# From patent US10266495B2, “Phenyl quinolinone derivatives as mutant-isocitrate dehydrogenase inhibitors” (FORMA TM2, Inc., priority 2014, dated 2019)
# pIC50: −log10 of the molar value.
# Molecular target: IDH1-R132H recombinant protein (Homo sapiens, UniProt O75874, R132H)
# Assay: IDH1-R132H enzymatic assay (NADPH consumption, diaphorase/resazurin readout)
# Type: biochemical
# Conditions: not given
# Description: Assays were performed in a 384-well black plate. An aliquot of 250 nL of compound was incubated with 10 μL of 30 nM IDH1-R132H or 10 nM IDH1-R132C recombinant protein in assay buffer (50 mM Tris pH=7.5, 150 mM NaCl, 5 mM MgCl2, 0.1% (w/v) Bovine Serum Albumin, and 0.01% Triton X-100) in each well at 25° C. for 15 minutes. After the plate was centrifuged briefly, an aliquot of 10 μL of 2 mM α-ketoglutarate and 20 μM NADPH solution prepared in assay buffer was then added to each well and the reaction was maintained at 25° C. for 45 minutes. An aliquot of 10 μL of diaphorase solution (0.15 U/mL diaphorase and 30 μM Resazurin in assay buffer) was added to each well. […] The IC50 of a given compound was calculated by fitting the dose response curve of inhibition of NADPH consumption at a given concentration with the four parameter logistic equation.
# IDH1-R132H recombinant protein, sequence (O75874 whole entry R132H): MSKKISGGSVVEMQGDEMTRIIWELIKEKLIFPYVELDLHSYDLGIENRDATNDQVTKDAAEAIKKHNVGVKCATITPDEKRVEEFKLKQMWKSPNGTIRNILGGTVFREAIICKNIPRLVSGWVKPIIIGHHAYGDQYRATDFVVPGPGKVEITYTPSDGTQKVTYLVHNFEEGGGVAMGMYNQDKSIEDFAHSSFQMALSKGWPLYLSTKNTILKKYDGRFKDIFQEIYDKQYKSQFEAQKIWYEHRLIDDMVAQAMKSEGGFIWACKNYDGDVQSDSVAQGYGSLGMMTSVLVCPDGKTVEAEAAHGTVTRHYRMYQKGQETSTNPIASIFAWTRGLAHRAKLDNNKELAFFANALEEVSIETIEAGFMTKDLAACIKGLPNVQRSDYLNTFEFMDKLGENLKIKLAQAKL
row,SMILES,pIC50
1,"N#Cc1ccc(NCc2cc3cc(Cl)ccc3[nH]c2=O)cc1F [Compound I-37, 4-{[(6-chloro-2-oxo-1,2-dihydroquinolin-3-yl)methyl]amino}-2-fluorobenzonitrile]",6.00 to 7.00
2,"N#Cc1ccc(NCc2cc3cc(Cl)ccc3[nH]c2=O)cc1C(F)(F)F [Compound I-35, 4-{[(6-chloro-2-oxo-1,2-dihydroquinolin-3-yl)methyl]amino}-2-(trifluoromethyl)benzonitrile]",6.00 to 7.00

# Same assay, conditions: read-out: Enzyme IDH1 R132H IC50 Range
row,SMILES,pIC50
1,"COc1cc(NCc2cc3cc(Cl)ccc3[nH]c2=O)ccc1-n1ccnc1 [Compound I-12, 6-chloro-3-({[4-(1H-imidazol-1-yl)-3-methoxyphenyl]amino}methyl)-1,2-dihydroquinolin-2-one]",< 6.00
2,"COc1cc(NCc2cc3cc(C)c(C)cc3[nH]c2=O)ccc1-n1cnnn1 [Compound I-20, 3-({[3-methoxy-4-(1H-1,2,3,4-tetrazol-1-yl)phenyl]amino}methyl)-6,7-dimethyl-1,2-dihydroquinolin-2-one]",6.00 to 7.00
3,"COc1cc(NCc2cc3cc(I)ccc3[nH]c2=O)ccc1C#N [Compound I-28, 4-{[(6-iodo-2-oxo-1,2-dihydroquinolin-3-yl)methyl]amino}-2-methoxybenzonitrile]",6.00 to 7.00
4,"Cc1cc2cc(CNc3cccc(S(=O)(=O)NC4=NCCC4)c3)c(=O)[nH]c2cc1C [Compound I-19, N-(3,4-dihydro-2H-pyrrol-5-yl)-3-{[(6,7-dimethyl-2-oxo-1,2-dihydroquinolin-3-yl)methyl]amino}benzene-1-sulfonamide]",< 6.00
5,"COc1cc(N[C@H](C)c2cc3cc(Cl)ccc3[nH]c2=O)ccc1C#N [Compound I-3, 4-{[(1R)-1-(6-chloro-2-oxo-1,2-dihydroquinolin-3-yl)ethyl]amino}-2-methoxybenzonitrile]",< 6.00
6,"COc1cc(NCc2cc3cc(Cl)ccc3[nH]c2=O)ccc1S(C)(=O)=O [Compound I-15, 6-chloro-3-{[(4-methanesulfonyl-3-methoxyphenyl)amino]methyl}-1,2-dihydroquinolin-2-one]",< 6.00
7,"COc1cc(NCc2cc3cc(C)c(C)cc3[nH]c2=O)ccc1C#N [Compound I-17, 4-{[(6,7-dimethyl-2-oxo-1,2-dihydroquinolin-3-yl)methyl]amino}-2-methoxybenzonitrile]",< 6.00
8,"CCOc1cc(NCc2cc3cc(Cl)ccc3[nH]c2=O)ccc1C#N [Compound I-13, 4-{[(6-chloro-2-oxo-1,2-dihydroquinolin-3-yl)methyl]amino}-2-ethoxybenzonitrile]",6.00 to 7.00
9,"COc1cc(N[C@@H](C)c2cc3cc(Cl)ccc3[nH]c2=O)ccc1S(C)(=O)=O [Compound I-6, 6-chloro-3-[(1S)-1-[(4-methanesulfonyl-3-methoxyphenyl)amino]ethyl]-1,2-dihydroquinolin-2-one]",< 6.00
10,"N#Cc1ccc(NCc2cc3cc(Cl)ccc3[nH]c2=O)cc1OCC(N)=O [Compound I-14, 2-(5-{[(6-chloro-2-oxo-1,2-dihydroquinolin-3-yl)methyl]amino}-2-cyanophenoxy)acetamide]",< 6.00
11,"C[C@H](Nc1ccc(C#N)cc1S(C)(=O)=O)c1cc2cc(Cl)ccc2[nH]c1=O [Compound I-4, 4-{[(1S)-1-(6-chloro-2-oxo-1,2-dihydroquinolin-3-yl)ethyl]amino}-3-methanesulfonylbenzonitrile]",< 6.00
12,"N#Cc1ccc(NCc2cc3cc(Cl)ccc3[nH]c2=O)cc1OCCO [Compound I-11, 4-{[(6-chloro-2-oxo-1,2-dihydroquinolin-3-yl)methyl]amino}-2-(2-hydroxyethoxy)benzonitrile]",6.00 to 7.00
13,"COc1cc(NCc2cc3cc(Br)ccc3[nH]c2=O)ccc1C#N [Compound I-23, 4-{[(6-bromo-2-oxo-1,2-dihydroquinolin-3-yl)methyl]amino}-2-methoxybenzonitrile]",7.00 to 8.00
14,"COc1cc(NCc2cc3cc(C)ccc3[nH]c2=O)ccc1-n1cnc(C)c1 [Compound I-18, 3-({[3-methoxy-4-(4-methyl-1H-imidazol-1-yl)phenyl]amino}methyl)-6-methyl-1,2-dihydroquinolin-2-one]",< 6.00

# More lines, now with the values ahead:
row,pIC50,SMILES
1,6.00 to 7.00,"COc1cc(NCc2cc3cc(C)ccc3[nH]c2=O)ccc1C#N [Compound I-50, 2-methoxy-4-{[(6-methyl-2-oxo-1,2-dihydroquinolin-3-yl)methyl]amino}benzonitrile]"
2,7.00 to 8.00,"COc1cc(NCc2cc3cc(Cl)c(OCc4ccnc(C)c4)cc3[nH]c2=O)ccc1C#N [Compound I-73, 4-[({6-chloro-7-[(2-methylpyridin-4-yl)methoxy]-2-oxo-1,2-dihydroquinolin-3-yl}methyl)amino]-2-methoxybenzonitrile]"
3,< 6.00,"O=c1[nH]c2ccc(Cl)cc2cc1CNc1ccccc1F [Compound I-46, 6-chloro-3-{[(2-fluorophenyl)amino]methyl}-1,2-dihydroquinolin-2-one]"
4,6.00 to 7.00,"COc1ccc2cc(CNc3ccc(C#N)c(OC)c3)c(=O)[nH]c2c1 [Compound I-56, 2-methoxy-4-{[(7-methoxy-2-oxo-1,2-dihydroquinolin-3-yl)methyl]amino}benzonitrile]"
5,< 6.00,"COc1cc(NCc2cc3cccnc3[nH]c2=O)ccc1C#N [Compound I-31, 2-methoxy-4-{[(2-oxo-1,2-dihydro-1,8-naphthyridin-3-yl)methyl]amino}benzonitrile]"
6,6.00 to 7.00,"COc1cc(NCc2cc3ccc(Cl)cc3[nH]c2=O)ccc1C#N [Compound I-29, 4-{[(7-chloro-2-oxo-1,2-dihydroquinolin-3-yl)methyl]amino}-2-methoxybenzonitrile]"
7,6.00 to 7.00,"COc1ccc2[nH]c(=O)c(CNc3ccc(C#N)c(OC)c3)cc2c1 [Compound I-52, 2-methoxy-4-{[(6-methoxy-2-oxo-1,2-dihydroquinolin-3-yl)methyl]amino}benzonitrile]"
8,< 6.00,"COc1cc(NCc2cc3ccccc3[nH]c2=O)ccc1-n1cnnn1 [Compound I-48, 3-({[3-methoxy-4-(1H-1,2,3,4-tetrazol-1-yl)phenyl]amino}methyl)-1,2-dihydroquinolin-2-one]"
9,< 6.00,"COc1ccc2[nH]c(=O)c(CNc3ccc(-n4ccnc4)cc3)cc2c1 [Compound I-53, 3-({[4-(1H-imidazol-1-yl)phenyl]amino}methyl)-6-methoxy-1,2-dihydroquinolin-2-one]"
10,< 6.00,"NC(=O)COc1ccc(NCc2cc3cc(Cl)ccc3[nH]c2=O)cc1 [Compound I-43, 2-(4-{[(6-chloro-2-oxo-1,2-dihydroquinolin-3-yl)methyl]amino}phenoxy)acetamide]"
11,7.00 to 8.00,"COc1cc(NCc2cc3cc(Cl)c(O)cc3[nH]c2=O)ccc1C#N [Compound I-57, 4-{[(6-chloro-7-hydroxy-2-oxo-1,2-dihydroquinolin-3-yl)methyl]amino}-2-methoxybenzonitrile]"
12,< 6.00,"N#CCc1cccc(NCc2cc3cc(Cl)ccc3[nH]c2=O)c1 [Compound I-45, 2-(3-{[(6-chloro-2-oxo-1,2-dihydroquinolin-3-yl)methyl]amino}phenyl)acetonitrile]"
13,6.00 to 7.00,"CCOc1ccc2[nH]c(=O)c(CNc3ccc(C#N)c(OC)c3)cc2c1 [Compound I-55, 4-{[(6-ethoxy-2-oxo-1,2-dihydroquinolin-3-yl)methyl]amino}-2-methoxybenzonitrile]"
14,6.00 to 7.00,"COc1cc(NCc2cc3ccc(C)cc3[nH]c2=O)ccc1C#N [Compound I-54, 2-methoxy-4-{[(7-methyl-2-oxo-1,2-dihydroquinolin-3-yl)methyl]amino}benzonitrile]"
15,< 6.00,"CNC(=O)c1ccc(NCc2cc3cc(Cl)ccc3[nH]c2=O)cc1 [Compound I-42, 4-{[(6-chloro-2-oxo-1,2-dihydroquinolin-3-yl)methyl]amino}-N-methylbenzamide]"
16,< 6.00,"NC(=O)c1ccccc1NCc1cc2cc(Cl)ccc2[nH]c1=O [Compound I-40, 2-{[(6-chloro-2-oxo-1,2-dihydroquinolin-3-yl)methyl]amino}benzamide]"
17,6.00 to 7.00,"COc1cc(C#N)ccc1NCc1cc2cc(Cl)ccc2[nH]c1=O [Compound I-34, 4-{[(6-chloro-2-oxo-1,2-dihydroquinolin-3-yl)methyl]amino}-3-methoxybenzonitrile]"
18,6.00 to 7.00,"CCOCCOc1cc2[nH]c(=O)c(CNc3ccc(C#N)c(OC)c3)cc2cc1Cl [Compound I-93, 4-({[6-chloro-7-(2-ethoxyethoxy)-2-oxo-1,2-dihydroquinolin-3-yl]methyl}amino)-2-methoxybenzonitrile]"
19,6.00 to 7.00,"COc1cc(NCc2cc3cc(Cl)cc(O)c3[nH]c2=O)ccc1C#N [Compound I-96, 4-{[(6-chloro-8-hydroxy-2-oxo-1,2-dihydroquinolin-3-yl)methyl]amino}-2-methoxybenzonitrile]"
20,< 6.00,"Cc1cc2cc(CNc3ccc(-n4cnnn4)cc3)c(=O)[nH]c2cc1C [Compound I-51, 6,7-dimethyl-3-({[4-(1H-1,2,3,4-tetrazol-1-yl)phenyl]amino}methyl)-1,2-dihydroquinolin-2-one]"
21,< 6.00,"O=c1[nH]c2ccc(Cl)cc2cc1CNc1ccc(-n2ccnc2)cc1 [Compound I-39, 6-chloro-3-({[4-(1H-imidazol-1-yl)phenyl]amino}methyl)-1,2-dihydroquinolin-2-one]"
22,< 6.00,"COc1cc(NCc2cc3cc(Cl)ccc3[nH]c2=O)ccc1Cl [Compound I-44, 6-chloro-3-{[(4-chloro-3-methoxyphenyl)amino]methyl}-1,2-dihydroquinolin-2-one]"
23,< 6.00,"COc1cc(NCc2cc3cc(Cl)ccc3[nH]c2=O)ccc1F [Compound I-41, 6-chloro-3-{[(4-fluoro-3-methoxyphenyl)amino]methyl}-1,2-dihydroquinolin-2-one]"
